Measurements from patent US11560385B2, “Proteasome activity enhancing compounds” (Proteostasis Therapeutics, Inc., priority 2018, dated 2023).

Target: USP14 (Homo sapiens (Human), UniProt P54578)
Experiment: Usp14 inhibition assay (Example 5A, A-series compounds)
Type: biochemical
Conditions: average value from a minimum of two experimental determinations; read-out: Usp14 IC50 Category
From the text: Example 5A: Usp14 Inhibition Assay
The IC50 values in the Table below represent the average value from a minimum of two experimental determinations.

Sequence of USP14 (P54578 whole entry, looked up): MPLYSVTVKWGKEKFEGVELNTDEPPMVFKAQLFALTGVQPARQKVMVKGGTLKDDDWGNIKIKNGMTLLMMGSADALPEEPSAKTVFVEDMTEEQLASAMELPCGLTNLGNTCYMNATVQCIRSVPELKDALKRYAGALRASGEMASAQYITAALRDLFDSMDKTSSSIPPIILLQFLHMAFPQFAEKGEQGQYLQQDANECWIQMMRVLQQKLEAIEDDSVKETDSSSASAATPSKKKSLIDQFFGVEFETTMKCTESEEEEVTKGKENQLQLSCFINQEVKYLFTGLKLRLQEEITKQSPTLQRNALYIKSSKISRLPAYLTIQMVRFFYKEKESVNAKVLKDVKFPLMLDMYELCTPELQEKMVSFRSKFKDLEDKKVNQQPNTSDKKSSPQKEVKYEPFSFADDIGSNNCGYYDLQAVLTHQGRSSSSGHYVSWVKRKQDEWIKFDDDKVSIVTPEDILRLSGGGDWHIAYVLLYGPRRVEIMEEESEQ

`Cc1c(C(=O)CN2[C@@H]3CCC[C@H]2CC3)c2ccc(CCS(C)(=O)=O)cc2n1-c1ccc(Cl)cc1` [Example 2A, 2-((1R,5S)-8-Azabicyclo[3.2.1]octan-8-yl)-1-(1-(4-chlorophenyl)-2-methyl-6-(2-(methylsulfonyl)ethyl)-1H-indol-3-yl)ethan-1-one] and `Cc1c(C(=O)CN2C3CCC2CC3)c2ccc(CCS(C)(=O)=O)cc2n1-c1ccc(Cl)cc1` [Example 1A, 2-(7-Azabicyclo[2.2.1]heptan-7-yl)-1-(1-(4-chlorophenyl)-2-methyl-6-(2-(methylsulfonyl)ethyl)-1H-indol-3-yl)ethan-1-one] cannot be ordered by IC50: under 50 nM for the first, under 50 nM for the second.

`Cc1c(C(=O)CN2[C@@H]3CC[C@H]2C[C@H](O)C3)c2ccc(CCC3=NCCN3C)cc2n1-c1ccc(Cl)cc1` [Example 28A, 1-(1-(4-Chlorophenyl)-2-methyl-6-(2-(1-methyl-4,5-dihydro-1H-imidazol-2-yl)ethyl)-1H-indol-3-yl)-2-((1R,3S,5S)-3-hydroxy-8-azabicyclo[3.2.1]octan-8-yl)ethan-1-one] and `Cc1c(C(=O)CN2C3CCC2CC(O)C3)c2ccc(CCS(C)(=O)=O)cc2n1-c1ccc(Cl)cc1` [Example 5A, 1-(1-(4-Chlorophenyl)-2-methyl-6-(2-(methylsulfonyl)ethyl)-1H-indol-3-yl)-2-((1R,3S,5S)-3-hydroxy-8-azabicyclo[3.2.1]octan-8-yl)ethan-1-one] cannot be ordered by IC50: under 50 nM for the first, under 50 nM for the second.

Compared with `Cc1c(C(=O)CN2CCC(O)CC2)c2ccc(CCC#N)cc2n1-c1ccc(Cl)cc1` [Example 9A], `Cc1c(C(=O)CN2C3CCC2[C@@H](O)C3)c2ccc(CCCC#N)cc2n1-c1ccc(Cl)cc1` (mixture of isomers) [Example 18A, (±)-4-(1-(4-Chlorophenyl)-3-(2-((2S)-2-hydroxy-7-azabicyclo[2.2.1]heptan-7-yl)acetyl)-2-methyl-1H-indol-6-yl)butanenitrile] is lower in IC50: over 100 nM for the first, under 50 nM for the second. The second is the more potent here.

`Cc1c(C(=O)CN2C3CCC2CC(O)C3)c2ccc(CC3COC3)cc2n1-c1ccc(Cl)cc1` [Example 27A, 1-(1-(4-Chlorophenyl)-2-methyl-6-(oxetan-3-ylmethyl)-1H-indol-3-yl)-2-((1R,3S,5S)-3-hydroxy-8-azabicyclo[3.2.1]octan-8-yl)ethan-1-one] gave an IC50 of over 100 nM.
